Like-named read-outs stand apart in the source and are kept apart here. Residues, ends and D or L forms follow the SMILES beside them. No end group written: not given here.
How the values were obtained:
HT1080 cells [1] = experiment: Rapid cell proliferation assay, HT1080, cyclic versus non-cyclic TPA; assay type: cell-based; conditions: 40 μg/ml
Protocol: Rapid cell proliferation assay was carried out using a Rapid Cell Proliferation Kit, EMD Biosciences (QIA127) (Galoian K, Tumor Biology 32 (4): 745-51, 2011). Cells were seeded at 5×10^4 cells/100 μl culture in the multi-well plate and incubated overnight at 37° C. in 5% CO2 incubator. The actual assay was performed the next day. The rapid cell proliferation assay is based on the activity of mitochondrial enzymes active in viable cells. PRP-1 was added to corresponding wells just after seeding, before overnight incubation. The colorimetric 96-well assay measures colorful product like formazan because of WST-1 tetrazolium salt cleavage by the mitochondrial dehydrogenases. The formazan formation is then quantified by measuring the change in absorbance at 450 nm in a microplate reader. The activity of mitochondrial dehydrogenases is proportional to cell number. No washing, harvesting, or solubilization steps are required. In this series of experiments, PRP-1 was added to corresponding wells immediately after seeding and cell attachment followed by overnight incubation according to the manufacturer's instructions.
The cyclic version was created to protect the peptide from being degraded by proteases in vivo. The cyclic peptide was tested for its potency in a rapid cell proliferation assay using HT1080 cells as described above using 40 μg/ml TPA or cyclic TPA in the assay.

[2] = test system: HT1080 fibrosarcoma cells; experiment: Survival experiment with HT1080 cells derived from doxorubicin relapsed mice; assay type: in vivo
Protocol: Additional survival experiments were undertaken. HT1080 fibrosarcoma cells were used in this experiment that derived from doxorubicin relapsed mice. The cells from tumor were excised as single cell suspension for quick isolation from tissue for subsequent luminescent labeling, then they were cultured in vitro and re-transplanted.

[3] = test system: MDA 231 (ER-) breast cell carcinoma cells; conditions: cited from earlier work
T47-D (ER+) cells = conditions: cited from earlier work
HT1080 cells [4] = assay type: cell-based, human
Text: Analysis of anti-proliferative activity in HT1080 cells was examined.

HT1080 fibrosarcoma = HT1080 fibrosarcoma nude mice model (IVIS, tumor volume, tumor weight); assay type: in vivo
Protocol: A nude mice model was used in which animals receive orthotopic inoculation of highly metastatic JJ012 chondrosarcoma or HT1080 fibrosarcoma tumor cell lines or primary cell lines labeled with extremely red bright fluorescent protein PTDT-N1.
Disease progression is evaluated through clinical signs and animal-relevant responses, tumor size analysis, real-time fluorescence and bioluminescence imaging (IVIS) of both in vivo and ex vivo disease-specific tumor microenvironments and lung metastases.
Monitoring of the solid tumors is as follows (when visible, tumors will be measured by noninvasive imaging or caliper at least weekly). Experimental endpoints depend on the site of transplantation. Mice are euthanized before they reach a tumor volume of 2 cm^3 for a single or multiple tumors. The overriding consideration for humane endpoints of these oncological experiments will be the overall health of the animal. Animals are weighed at least once a week for fast growing tumors (reaching endpoint before 3 months after transplantation) and at least once a month for slow growing tumors. Any tumor-bearing animal are euthanized immediately if the tumor impairs ambulation or eating. […] Animals bearing tumors in such locations are euthanized before the tumors reach the above-stated dimensions.
Tumor-bearing mice are photographed either at the experimental endpoint or using noninvasive imaging technologies to monitor tumor progression. Also contemplated is imaging in vivo for evidence of tumor progression (BLI, IVIS), and observance of clinical signs of metastases (listlessness, weight loss, or hunched posture). Tumors and lungs are harvested to confirm presence of lung metastases and further analyzed: tumors are weighed, photographed, and sectioned into samples designated half for 10% formalin fixation analysis or half for snap-freeze in liquid nitrogen for future analysis.

fibrosarcoma spheroids = experiment: Neutral red cytotoxicity assay; assay type: cell-based
[5] = test system: 3D fibrosarcoma spheroids; experiment: Self-renewal assay with 3D fibrosarcoma; assay type: cell-based
[6] = test system: cardiomyocyte cell line AC16; experiment: Cardiotoxicity in cardiomyocyte cell line AC16; assay type: cell-based; conditions: 24 hours; TPA 40 μg/mL, Doxo 2 mM
Protocol: Cardiotoxicity results of TPA, Doxo and TPA+Doxo combo were analyzed in cardiomyocyte cell line AC16. Cells were treated 24 hours with C (control, DMSO 0.5%), TPA (40 μg/mL), Doxo (Doxorubicin, 2 mM), and TPA (40 μg/mL)+Doxo (2 mM). (FIG. 10). […] Thus, overall survival increases observed in vivo should be attributed to TPA's ability to target and eliminate cancer stem cells.

[7] = test system: osteosarcoma cell line KHOS; experiment: Rapid cell proliferation assay, KHOS; assay type: cell-based; conditions: 48 h
Protocol: (§1) The effects of TPA on three osteosarcoma cell lines OSA, KHOS, MNNG was analyzed (FIG. 11). Rapid cell proliferation was measured by a Rapid Cell Proliferation Kit, EMD Biosciences (QIA127). Cells were seeded at 5×10^4 cells/100 μl culture in a multi-well plate and incubated overnight at 37° C. in 5% CO2 incubator. The actual assay was performed the next day. The rapid cell proliferation assay is based on the activity of mitochondrial enzymes active in viable cells. TPA was added to corresponding wells just after seeding, and before overnight incubation. The 96-well assay measures colorimetric product like formazan because of WST-1 tetrazolium salt cleavage by the mitochondrial dehydrogenases. TPA exerted its effect in all cell lines 48 hours after the incubation. […] (FIG. 11)

[8] = test system: osteosarcoma cell line MNNG; experiment: Rapid cell proliferation assay, MNNG; assay type: cell-based; conditions: only the highest dose of 40 μg/ml, 48 hours
Protocol: as §1

Nanog = Nanog mRNA expression in 3D HT1080 lysates; assay type: cell-based; conditions: 3D lysates, TPA 20 μg/mL
Text: (§2) Experiments herein (FIG. 13) indicated there was statistically significant inhibition in 3DHT1080 cell line for EZH2, and its targets, embryonic transcription factor Nanog (Villasante et al., Cell Cycle. 10 (9): 1488-498, 2011), and cancer stem cell marker […], ALDH1A1 (Li et al., Cancer Prev Res (Phila). 25 (3): 484-491 2012). Aldehyde dehydrogenase (ALDH) is an established marker of CSCs in several neoplasms. Cells expressing high levels of ALDH have been isolated in a number of human sarcoma cell lines, including the human chondrosarcoma SW 1353 cell line (Lohberger et al., PLOS One 7).

EZH2 = EZH2 mRNA expression in 3D HT1080 lysates; assay type: cell-based; conditions: 3D lysates, TPA 20 μg/mL
Text: as §2

ALDHA = ALDHA mRNA expression in 3D HT1080 lysates; assay type: cell-based; conditions: 3D lysates, TPA 20 μg/mL
Text: as §2

Nanog protein = Nanog protein expression in 3D HT1080 cells, western blot; assay type: cell-based; conditions: 40 μg/ml
HOXC13 proteins = experiment: Inhibition of HOXC13 proteins
[9] = test system: chondrosarcoma and fibrosarcoma
[10] = mouse, in vivo
[11] = Acute and cumulative toxicity in mice

## CC(C)C[C@@H]1NC(=O)[C@H](CCC(=O)O)NC(=O)[C@@H]2CCCN2C(=O)[C@H](CC(=O)O)NC(=O)[C@H](C)NC(=O)[C@@H]2CCCN2C(=O)CNC(=O)[C@H](CCCCN)NC(=O)[C@@H]2CCCN2C(=O)[C@H](CCC(=O)O)NC(=O)[C@@H]2CCCN2C(=O)[C@H]([C@@H](C)O)NC(=O)[C@H](CCC(=O)O)NC(=O)[C@H](CO)NC(=O)[C@H](Cc2ccc(OP(=O)(O)O)cc2)NC1=O [cyclic TPA, Cyclo(Ser-Glu-Thr-Pro-Glu-Pro-Lys-Gly-Pro-Ala-Asp-Pro-Glu-Leu-Tyr (PO3H2))] (HELM PEPTIDE1{A.D.P.E.L.[O=C([C@H](Cc1ccc(OP(=O)(O)O)cc1)N[*:1])[*:2]].S.E.T.P.E.P.K.G.P}$PEPTIDE1,PEPTIDE1,1:R1-15:R2$$$V2.0)
HT1080 cells [1]
  improvement over non-cyclic TPA: ~1.5 fold
  inhibition of cell growth compared to control: over 50%

## COc1cccc2c1C(=O)c1c(O)c3c(c(O)c1C2=O)C[C@@](O)(C(=O)CO)C[C@@H]3O[C@H]1C[C@H](N)[C@H](O)[C@H](C)O1 [doxorubicin]
[2]; 10 mice per group, control (PBS) 21 days
  median survival: 28 days
[2]; mice re-transplanted with cells from doxorubicin relapsed tumors
  overall Median Survival advantage: 33%

## AGAPEPAEPAQPGVY [PRP-1]
[3]; 0.5 μg/ml PRP-1
  inhibition of cell growth: 71%
[3]; 1 μg/ml PRP-1
  inhibition of cell growth: 63%
[3]; 10 μg/ml
  inhibition of cell growth: 44%
T47-D (ER+) cells
  inhibitory effect on cell growth: no inhibitory effect

## SETPEPKGPADPELY [TPA 1, SETPEPKGPADPELY]
HT1080 cells [4]
  IC50, anti-proliferative activity: 21 µg/mL
HT1080 cells [4]; HT1080 human fibrosarcoma, dose response
  concentration of maximum effect: 40 µg/mL
HT1080 cells [4]; visual, maximum effect with 40 μg/ml
  effect on cancer stem cell spheroids: destruction of cancer stem cell spheroids in dose response manner

## SETPEPKGPADPELY [TPA, SETPEPKGPADPELY]
HT1080 fibrosarcoma; by day 18
  tumor volume versus Control: trend toward decreased tumor volume
HT1080 fibrosarcoma; day after Day 14
  tumor weights at necropsy versus Control: no difference in tumor weights
HT1080 fibrosarcoma; through Day 14, IVIS % Growth p<0.001
  IVIS tumor growth compared to Control: decreased growth
Fibrosarcoma spheroids; 40 μg/ml
  cytotoxic effect relative to doxorubicin (DO): almost that in cytotoxic doxorubicin
Fibrosarcoma spheroids; increased concentration of TPA peptide
  viability of fibrosarcoma spheroids: dose response decrease in viability
[5]; 20 μg/ml
  effect on spheroids in comparison to not treated control: destruction and shrinkage of the spheroid
  viability of the shrunken spheroids by viability assay: non viable
[5]; 40 μg/ml
  spheroid formation: completely prevented spheroid formation
[6]
  cytotoxicity in cardiomyocytes: did not show any toxicity
[7]
  growth inhibition: 40%
[8]
  growth inhibition: inhibited growth
Nanog
  Nanog mRNA fold decrease versus control: 7.69 fold
Nanog; normalized to GAPDH mRNA
  reduced expression of Nanog: 87%
EZH2
  EZH2 mRNA fold decrease versus control: 5 fold
EZH2; normalized to GAPDH mRNA
  reduced expression of EZH2: 80%
ALDHA
  ALDHA mRNA fold decrease versus control: 3.22 fold
ALDHA; normalized to GAPDH mRNA
  reduced expression of ALDHA: 69%
Nanog protein
  inhibition of Nanog protein in comparison with control: 47%
HOXC13 proteins
  inhibition of HOXC13 proteins: inhibits in a statistically significant manner
[9]
  inhibition of chondrosarcoma and fibrosarcoma growth: 80-90%
[10]
  blood count and chemistry: no change in blood count and chemistry
[11]; following 14 days of TPA treatment
  cumulative toxicity: no cumulative toxicity
[11]; up to 100 mg/kg
  acute toxicity (change in weight or behavior): No acute toxicity

From US20260070946A1, “TYR PEPTIDE COMPOSITIONS AND METHODS FOR USE” (UNIVERSITY OF MIAMI, priority 2022, published 2026)
